Source: the NIST ThermoML archive (doi:10.1016/j.fluid.2017.03.021)
± gives the expanded uncertainty stated by the source.

Conditions: 101.33 kPa, Liquid, Vibrating tube method

CCCCCC[n+]1ccn(C)c1.O=S(=O)([N-]S(=O)(=O)C(F)(F)F)C(F)(F)F
mass density (293.15 K): 1377.1 ± 0.6 kg/m3 | mass density (298.15 K): 1372.5 ± 0.6 kg/m3 | mass density (303.15 K): 1367.8 ± 0.6 kg/m3 | mass density (308.15 K): 1363.5 ± 0.5 kg/m3 | mass density (313.15 K): 1358.7 ± 0.5 kg/m3 | mass density (318.15 K): 1354.3 ± 0.5 kg/m3 | mass density (323.15 K): 1349.6 ± 0.5 kg/m3 | mass density (328.15 K): 1345.2 ± 0.5 kg/m3 | mass density (333.15 K): 1340.5 ± 0.5 kg/m3 | mass density (338.15 K): 1336.2 ± 0.5 kg/m3 | mass density (343.15 K): 1331.6 ± 0.5 kg/m3
